# EP0427405A1 (priority 1989, dated 1991)
# Legend:
# [1] = tested on: Phaffia rhodozyma ENZA-A169; format: cell-based
# [2] = tested on: Phaffia rhodozyma ENZA-M10; format: cell-based
structure (smiles),measurement,setting,value
"CSC [DMS, dimethylsulphide]","kill curve, kinetics of death",[1],follows 1st order kinetics
same,"kill curve, speed of killing",[1],killed much more quickly than E1
same,"kill curve, shape",[2],"definite ""bump"""
